Test results taken from paper PMC3814616, “BRAF inhibitors suppress apoptosis through off-target inhibition of JNK signaling” (eLife, 2013).

Key:
phospho-ERK = conditions: A375 and WM35
cleaved caspase 3 = assay: Immunohistochemistry of cSCC from Hairless mice; type: in vivo, mouse; conditions: p=0.019
Text: (§1) We also used the Hairless mouse model of squamous cell carcinoma to assess whether PLX4720 would affect UV-driven tumor development. This is particularly relevant since it appears that UV exposure is an important initiating event in BRAFi-accelerated cSCC ([Su et al., 2012]). Unlike the DMBA/TPA model, in which lesions almost universally harbor Hras mutations ([Brown et al., 1990]), the Hairless model has a very low frequency of Ras mutation in papillomas and carcinomas ([van Kranen et al., 1995]), more similar to sporadic human cSCC. […]
(§2) Figure 5. […] (A and B) cDNA was reverse-transcribed from total RNA, PCR-amplified with the above primers (B) and analyzed by Sanger sequencing for mutations in both directions. No mutations in Hras, Kras, or Nras were detected in any of the papillomas (n = 5) or carcinomas (n = 3) isolated from PLX4720-treated mice. […]
(§3) Cutaneous squamous cell carcinomas biopsied from patients treated with or without BRAF-inhibitor were obtained either under clinical trials (Roche) or separate IRB approval (LAB08-0750). Staining levels were quantified by counting positively labeled cells and dividing by the total area of the tumor tissue within each sample. To measure tumor areas, all samples were photographed, tumor cells outlined, and total pixel numbers calculated using included image analysis tools in Adobe Photoshop and standardized to a hemacytometer to convert to mm^2. […]

phospho-JNK = assay: Immunohistochemistry of cSCC from Hairless mice; type: in vivo, mouse; conditions: p=0.046
Text: as §1, §2, §3

TAOK1 = molecular target: T1, TAOK1 (Homo sapiens, UniProt Q7L7X3); set-up: method as in Tsai et al., 2008; conditions: ref Tsai et al., 2008; read-out: Published biochemical IC50; cited from earlier work
T1 construct: purchased KINOMEscan (DiscoveRx), San Diego, CA
T1 sequence (Q7L7X3 1-1001): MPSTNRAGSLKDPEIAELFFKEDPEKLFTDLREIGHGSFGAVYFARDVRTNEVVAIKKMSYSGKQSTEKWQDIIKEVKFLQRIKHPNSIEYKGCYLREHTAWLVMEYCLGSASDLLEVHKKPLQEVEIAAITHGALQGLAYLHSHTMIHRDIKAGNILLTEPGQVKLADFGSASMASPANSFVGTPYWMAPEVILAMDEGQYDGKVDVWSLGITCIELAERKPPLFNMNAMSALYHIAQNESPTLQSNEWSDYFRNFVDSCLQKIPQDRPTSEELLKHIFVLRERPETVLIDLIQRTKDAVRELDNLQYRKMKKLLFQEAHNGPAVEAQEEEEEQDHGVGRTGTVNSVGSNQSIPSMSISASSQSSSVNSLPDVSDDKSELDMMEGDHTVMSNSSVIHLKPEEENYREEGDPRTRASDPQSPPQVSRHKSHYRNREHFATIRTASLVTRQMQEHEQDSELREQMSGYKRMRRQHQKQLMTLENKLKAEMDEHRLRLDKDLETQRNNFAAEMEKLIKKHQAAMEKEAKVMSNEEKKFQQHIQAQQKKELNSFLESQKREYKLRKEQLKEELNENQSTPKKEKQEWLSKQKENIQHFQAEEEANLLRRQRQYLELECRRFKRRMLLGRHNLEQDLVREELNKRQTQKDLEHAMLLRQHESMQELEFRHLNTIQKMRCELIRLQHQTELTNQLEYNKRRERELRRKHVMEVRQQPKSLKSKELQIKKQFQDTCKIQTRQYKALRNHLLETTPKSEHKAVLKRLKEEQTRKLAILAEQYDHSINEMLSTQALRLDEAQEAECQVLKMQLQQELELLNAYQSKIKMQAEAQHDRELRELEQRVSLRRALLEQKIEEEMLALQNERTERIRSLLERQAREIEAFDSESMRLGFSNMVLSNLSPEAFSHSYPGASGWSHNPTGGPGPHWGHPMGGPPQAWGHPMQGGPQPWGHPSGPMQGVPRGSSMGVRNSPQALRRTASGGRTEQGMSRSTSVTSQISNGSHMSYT

MEK6 (MAP2K6) = molecular target: T2, MEK6 (MAP2K6) (Homo sapiens, UniProt P52564); set-up: method as in Bollag et al., 2010; conditions: ref Bollag et al., 2010; read-out: Published biochemical IC50; cited from earlier work
T2 construct: purchased KINOMEscan (DiscoveRx), San Diego, CA
T2 sequence (P52564 whole entry): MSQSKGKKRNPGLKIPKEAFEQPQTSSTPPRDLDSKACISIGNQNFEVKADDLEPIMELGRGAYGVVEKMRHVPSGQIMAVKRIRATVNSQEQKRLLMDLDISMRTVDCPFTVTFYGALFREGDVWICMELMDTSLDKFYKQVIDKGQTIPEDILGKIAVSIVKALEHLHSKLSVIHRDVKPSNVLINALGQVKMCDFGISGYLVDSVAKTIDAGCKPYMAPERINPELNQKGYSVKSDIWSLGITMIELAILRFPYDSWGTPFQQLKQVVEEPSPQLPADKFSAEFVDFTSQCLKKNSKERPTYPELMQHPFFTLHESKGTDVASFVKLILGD

| SMILES | phospho-ERK expression (phospho-ERK) | cleaved caspase 3 expression in tumors vs control-treated mice (cleaved caspase 3) | phospho-JNK expression in tumors vs control-treated mice (phospho-JNK) | IC50 (TAOK1) | IC50 (MEK6 (MAP2K6)) |
| --- | --- | --- | --- | --- | --- |
| CCCS(=O)(=O)Nc1ccc(F)c(C(=O)c2c[nH]c3ncc(Cl)cc23)c1F [PLX4720] | strongly suppressed | significant decreases | significant decreases | > 5 µM | – |
| CCCS(=O)(=O)Nc1ccc(F)c(C(=O)c2c[nH]c3ncc(-c4ccc(Cl)cc4)cc23)c1F [vemurafenib] | – | – | – | – | > 1 µM |
